Data taken from patent US10336675B2, “Biaromatic vitamin D analogs” (DSM IP ASSETS B.V., priority 2015, dated 2019).

Biological target: T1, human vitamin D receptor (VDR) (Homo sapiens, UniProt P11473)
T1 construct: expressed in transfected cells; host or cells: HEK293 cells (ATCC), transient transfection with a GATEWAY-compatible pCMV-BD vector
T1 sequence (P11473 127-423 limits assumed): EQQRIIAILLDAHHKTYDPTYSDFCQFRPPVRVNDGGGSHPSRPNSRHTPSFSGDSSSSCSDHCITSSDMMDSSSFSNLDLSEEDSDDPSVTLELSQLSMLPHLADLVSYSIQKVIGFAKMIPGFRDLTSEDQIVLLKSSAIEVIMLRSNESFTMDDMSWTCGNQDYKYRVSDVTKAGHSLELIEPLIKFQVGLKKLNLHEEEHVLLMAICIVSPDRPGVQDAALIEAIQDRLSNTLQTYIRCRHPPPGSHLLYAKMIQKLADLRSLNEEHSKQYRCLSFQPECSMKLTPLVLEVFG
Assay: Human vitamin D receptor (VDR) agonist activity: GAL4-VDR LBD luciferase transactivation assay in transiently transfected HEK293 cells
Type: cell-based
Details: VDR LBD-GAL4 DBD fusion, pFR-Luc luciferase reporter, 16 h incubation, read-out: Effective concentrations of half maximal activation (EC50)
Description: By way of example, the human vitamin D receptor (VDR) agonist activity of the claimed compounds can be tested using a cell based transactivation assay in an eukaryotic cell line. After a co-transfection, using a reporter plasmid construct and a hybrid receptor construct containing the ligand-binding domain of the human VDR linked to the DNA-binding domain of the yeast transcription factor GAL4, the cultured cells were stimulated by the VDR agonists. The hybrid VDR-GAL4 receptor binds the VDR agonists and transactivates luciferase reporter expression through the GAL4-response elements in the promoter of the luciferase gene (reporter construct). The VDR agonist binding and transactivation is determined by measuring the luciferase luminescence activity. The effective concentration of half maximal activation (EC50) was determined for the VDR agonists by means of dose-response experiments. The details of the protocol method of this test according to the invention are described in the example section.
Testing of the Human Vitamin D Receptor (VDR) Agonist Activity of the Compounds
The transient transfections were performed in HEK293 cells (ATCC, Molsheim, France) grown in minimum essential medium (Eagle) with Earle's balanced salt solution without L-glutamine and supplemented with 10% fetal bovine serum (Sigma-Aldrich Corp., St. Gallen, Switzerland), 2 mM glutamax (Life Technologies AG, Basel, Switzerland), 0.1 mM non-essential amino acids (Life Technologies), and 1 mM sodium pyruvate (Life Technologies) at 37° C. in 5% CO2. For transfection, 7.5×10^4 cells were plated per well (80 μl) in white 96-well cell culture plates with clear bottom (Corning, Basel, Switzerland) in minimum essential medium (Eagle) with Earle's balanced salt solution without L-glutamine and without phenol red supplemented with 10% charcoal-treated fetal bovine serum (HyClone Laboratories, Inc., Logan, Utah, USA), 2 mM glutamax, 0.1 mM non-essential amino acids, and 1 mM sodium pyruvate. The cells were transiently transfected before stimulation the next day at >80% confluence by polyethylene-imine-based transfection. Compound stocks were prepared in DMSO, pre-diluted in PBS (0.45% final DMSO concentration), and added in the respective dilution 5 h after the addition of the transfection mixture onto the cells. The cells were again incubated for additional 16 h before firefly and renilla luciferases activity was measured sequentially in the same cell extract using buffers according to established protocols (Promega AG, Dübendorf, Switzerland). Transfection efficiency was controlled to the pRL-TK renilla luciferase reporter expression.

Row | SMILES | EC50
1 | CC/C(=C\C=C\C(O)(CC)CC)c1cccc(CCc2ccc(C(O)C(CO)CCCCO)cc2)c1 (stereo not shown) [Comp1, reference compound] | 111 nM
2 | CC/C(=C\C=C\C(O)(CC)CC)c1cccc(CCc2ccc(C(O)C(C)CO)cc2)c1 (stereo not shown) [I-d, 1-(4-(3-((3E,5E)-7-ethyl-7-hydroxynona-3,5-dien-3-yl)phenethyl)phenyl)-2-methylpropane-1,3-diol] | 28 nM
3 | CC/C(=C\C=C\C(O)(CC)CC)c1cccc(CCc2ccc(C(O)C(CO)CCCO)cc2)c1 (stereo not shown) [I-e, 1-(4-(3-((3E,5E)-7-ethyl-7-hydroxynona-3,5-dien-3-yl)phenethyl)phenyl)-2-(hydroxymethyl)pentane-1,5-diol] | 30 nM
4 | CC/C(=C\C=C\C(O)(CC)CC)c1cccc(CCc2ccc(C(O)C(C)C(C)O)cc2)c1 (stereo not shown) [I-f, 1-(4-{2-[3-((1E,3E)-1,5-Diethyl-5-hydroxy-hepta-1,3-dienyl)-phenyl]-ethyl}-phenyl)-2-methylbutane-1,3-diol] | 34 nM

Compounds with a lower EC50, results first:

Row | EC50 | SMILES
5 | 13 nM | CC/C(=C\C=C\C(O)(CC)CC)c1cccc(CCc2ccc(C(O)CCO)cc2)c1 (racemic) [I-c, 1-(4-(3-((3E,5E)-7-ethyl-7-hydroxynona-3,5-dien-3-yl)phenethyl)phenyl)propane-1,3-diol]
6 | 12 nM | CC/C(=C\C=C\C(O)(C(F)(F)F)C(F)(F)F)c1cccc(CCc2ccc(C(O)CCO)cc2)c1 (racemic) [I-b, 1-(4-(3-((3E,5E)-8,8,8-trifluoro-7-hydroxy-7-(trifluoromethyl)octa-3,5-dien-3-yl)phenethyl)phenyl)propane-1,3-diol]
7 | 4 nM | CC/C(=C\C=C\C(O)(CC)CC)c1cccc(CCc2ccc(C(O)CC(C)O)cc2)c1 (stereo not shown) [I-a, 1-(4-(3-((3E,5E)-7-ethyl-7-hydroxynona-3,5-dien-3-yl)phenethyl)phenyl)butane-1,3-diol]
